Test results taken from US20050249665A1, “Urea-, glycerate- and, hydroxyamide-headed hydrocarbon chain lyotropic phases forming surfactants” (DBL Australia Pty Ltd., priority 2002, published 2005).
Where “and” joins values, the source holds several entries; their conditions need not be identical. Equal entries are not always repeated. Entries after “also recorded” stand apart in the source; their conditions may differ. Where two headings read alike, the source gives them in different places.

Legend:
Assay type in all cases: physicochemical
[1] = Flooding experiment: lyotropic phase formed in excess water at 40° C.; further: key: Hll denotes reverse hexagonal phase; settings: sample maintained at 40° C., crossed polarised light, 200x
Experimental: (§1) Preliminary assessment of the phase behaviour of a selected compound was conducted using the ‘flooding’ technique. The flooding technique involves placing the compound between a coverslip and microscope slide and introducing water to the sample to establish a water concentration gradient through the sample. […] If the experiment is conducted on a hot stage, the temperature range over which the particular lyotropic phases exist can also be determined. The phase behaviour can be observed under normal or cross-polarised light using an optical microscope. […] For the purpose of the present invention it was especially useful for identifying which phase was present at the boundary with excess water.
For the surfactant to be useful it preferably forms a viscous lyotropic phase in the presence of excess water. The lyotropic phase formed by the surfactant in excess water was determined by flooding experiments, in which a small amount of lipid (typically 5 mg) is placed between a glass microscope slide and coverslip and water introduced to the sample by capillary action, with the sample maintained at 40° C. by means of a hot stage. Observation under crossed polarised light at 200× magnification allows identification of the phase formed by the visible birefringent texture, or lack thereof.

[2] = Water content of saturated lyotropic phase by Karl Fisher titration; settings: 300 mg surfactant in excess water, equilibrated at 40° C.; mean of three samples ± SD
Experimental: The mass of water incorporated in the lyotropic phase was determined by preparing a 300 mg sample of surfactant in excess water, equilibrating at 40° C., and testing the water content of the lyotropic phase by Karl Fisher titration. Values reported are the mean of three separate samples i standard deviation, unless otherwise indicated.

[3] = Lyotropic behaviour: flooding technique on hot stage, optical microscopy under crossed polarised light
Experimental: as §1

[4] = flooding with water, temperature as stated per example

Structure (SMILES) | Phase formed in excess water [1] | % water (w/w) in saturated lyotropic phase [2] | Lyotropic phase formed at the interface with water [3, 4] | Temperature at which the hexagonal phase reappears on cooling ([3]; flooding, cooling) [°C] | Temperature at which the hexagonal phase begins to melt ([3]; flooding, heating) [°C] | Temperature at which the hexagonal phase is completely melted / sample completely isotropic ([3]; flooding, heating) | Temperature at which the lyotropic phase forms / begins to form on contact with water ([3]; flooding, heating) | Temperature at which the isotropic cubic phase reforms on cooling ([3]; flooding, cooling) [°C] | Temperature at which the isotropic cubic phase has disappeared ([3]; flooding, heating) [°C] | Lyotropic phase formed at the interface with water [3] | Temperature at which the lyotropic phase forms / begins to form on contact with water [3] [°C]
CC(C)CCCC(C)CCCC(C)CCOC(=O)C(O)CO (centres unmarked) [2,3-Dihydroxypropionic acid 3,7,11-trimethyl-dodecyl ester] | Hll | 24.7 ± 0.7 % (w/w) | – | – | – | – | – | – | – | – | –
CC(C)CCCC(C)CCCC(C)CCCC(C)CC(=O)OCC(O)CO (centres unmarked) [3,7,11,15-tetramethyl-hexadecanoic acid 1-glycerol ester] | Hll | 23.1 ± 3.2 % (w/w) | – | – | – | – | – | – | – | – | –
CC(C)CCCC(C)CCCC(C)CCCC(C)CCN(CCO)C(N)=O (centres unmarked) [Example 1, 1-(3,7,11,15tetramethyl-hexadecyl)-1-(2-hydroxyethyl) urea] | Hll | – | reverse hexagonal phase | 51.1 | 50.9 | 58.1 °C | 20 °C | – | – | – | –
CC(C)CCCC(C)CCCC(C)CCCC(C)CCNC(=O)NCCO (centres unmarked) [Example 2, 1-(3,7,11,15-tetramethyl-hexadecyl)-3-(2-hydroxyethyl) urea] | Hll | 14.3 ± 4.6 % (w/w) | reverse hexagonal phase | 44.1 | 40.4 | 58 °C and 57.3 °C | below 8 °C | – | – | – | –
CC(C)CCCC(C)CCCC(C)CCCC(C)CCNC(N)=O (centres unmarked) [Example 3, 3,7,11,15Tetramethyl-hexadecyl urea] | Hll | 28.4 ± 2.3 % (w/w) | reverse hexagonal phase | – | 72.6 | 82.1 °C | 25 °C | – | – | – | –
CC(C)CCCC(C)CCCC(C)CCNC(N)=O (centres unmarked) [Example 4, 3,7,11-Trimethyl-dodecyl urea] | Hll | 8.1 ± 2.5 % (w/w) | reverse hexagonal phase | – | 55 | > 70 °C | 30 °C | – | – | – | –
CCCCCCCC/C=C\CCCCCCCCOC(=O)C(O)CO (centres unmarked) [Example 5, 2,3-Dihydroxypropionic acid octadec-9-enyl ester] | Hll | 16.8 ± 3.9 % (w/w) | – | 77 | 65 | 80 °C | 30 °C | 40 | 70 | – | –
CC(C)CCCC(C)CCCC(C)CCCC(C)CCOC(=O)C(O)CO (centres unmarked) [Example 6, 2,3-Dihydroxypropionic acid 3,7,11,15-tetramethyl-hexadecyl ester] | Hll | 28.7 ± 2.5 % (w/w) | reverse hexagonal phase | – | ~40 | 48 °C | room temperature | – | – | – | –
CC(C)CCCC(C)CCCC(C)CCCC(C)CC(=O)NC(C)(CO)CO (centres unmarked) [Example 7, 3,7,11,15-tetramethyl-hexadecanoic acid (1,1-bis-hydroxymethyl-ethyl)-amide] | – | – | isotropic phase; also recorded: hexagonal phase | – | 25.5 | 26.7 °C | 10-15 °C | – | – | – | –
CCCCCCCC/C=C\CCCCCCCCNC(=O)NCCO [Example 8, 1-(2-Hydroxyethyl)-3-(cis-octadec-9-enyl) urea] | – | – | – | – | – | ~67 °C | – | – | – | isotropic phase | 59.5
CCCCCCCC/C=C\CCCCCCCCNC(=O)NC(N)=O [Example 9, cis-octadec-9-enyl biuret] | – | – | hexagonal phase | – | – | 107 °C | 85 °C | – | – | – | –
CCCCCCCC/C=C\CCCCCCCCNC(N)=O [Example 10, cis-octadec-9enyl urea] | – | – | reverse hexagonal phase | – | – | 110 °C | 61 °C | – | – | – | –
CCCCC/C=C\C/C=C\CCCCCCCCNC(N)=O [Example 11, cis, cis-octadec-9,12-dienyl urea] | – | – | reverse hexagonal phase | – | – | 92-93 °C | 53 °C | – | – | – | –
